Assay [1] has as its system Leishmania donovani amastigote forms. Put plainly: Amastigote test (intracellular forms in J774.2 macrophages), L. donovani. It counts as cell-based. To be noted: Leishmania donovani, 72 h, mean ± SD. As for the experimental part: Promastigote forms of three different Leishmania spp., L. donovani (MHOM/PE/84/LC26), L. infantum (MCAN/ES/2001/UCM-10) and L. braziliensis (MHOM/BR/1975/M2904), were cultured in vitro in Medium Trypanosomes Liquid (MTL) supplemented with 10% inactivated foetal calf serum (FCS) in an air atmosphere at 28 °C, in Roux flasks (Corning, Manassas, VA, USA) with a surface area of 75 cm^2, according to [33].
(§1) The compounds and the reference drug Glu were dissolved in DMSO (Panreac, Barcelona, Spain) and tested from 100 µM to 1 µM with 0.1% (v/v) DMSO final concentration in plates. Therefore, controls were prepared including 0.1% (v/v) of this component, as previously described.
J774.2 macrophages were grown and seeded at a density of 1 × 10^4 cells/well in 24-well microplates (Nunc) with rounded coverslips on the bottom and cultured for 48 h in humidified 95% air, 5% CO2 atmosphere at 37 °C in Minimal Essential Medium (MEM) with 2 mM glutamine and 20% (v/v) inactivated FCS. Adherent macrophages were infected with metacyclic promastigotes in the stationary growth phase of L. donovani, L. infantum and L. braziliensis at a multiplicity of infection (MOI) ratio of 1:10 and maintained for 24 h. Non-phagocytosed parasites were removed by washing, and after addition of the testing compounds at concentrations from 100 µM to 1 µM, cultured in 500 μL/well volumes. Control cultures were also included. After 72 h incubation, leishmanicidal activity was assessed based on the number of amastigotes in treated and untreated cultures in methanol-fixed and Giemsa-stained preparations by analyzing 500 host cells distributed in randomly chosen microscopic fields. The leishmanicidal effect was calculated as described to determine the leishmanicidal activity in the promastigote forms. Each drug concentration was tested in triplicate in four separate determinations.

Assay [2] deals with J774.2 murine macrophages. As to the kind of experiment: Cytotoxicity test on macrophages by flow cytometry. The class given is cell-based, mouse. To be noted: Mus musculus, J774.2 macrophages, 72 h, read-out: Toxicity IC50 Macrophage. As for the experimental part:
as §1
The macrophage line J774.2 [European collection of cell cultures (ECACC) number 91051511] was derived in 1968 from a tumour in a female BALB/c mouse. Macrophages were grown in humidified 95% air, 5% CO2 atmosphere at 37 °C in Minimal Essential Medium (MEM) with 2 mM glutamine and 20% (v/v) inactivated FCS. The cytotoxicity test on macrophages was performed by Flow cytometry analysis according to a method previously described. Briefly, cells were seeded at a density of 5 × 10^4 cells/well in 24-well microplates (Nunc, Naperville, IL, USA). After 48 h incubation, the medium was removed, and fresh medium was added together with each test compound at concentrations from 100 µM to 1 µM and cultured in 500 μL/well volumes for 72 h. Thereafter, cells were recovered by centrifugation, and cell viability was determined by Flow cytometry (FACS Vantage flow cytometer, Becton Dickinson, San Jose, CA, USA) after incubating the cells with propidium iodide ([…]) and fluorescein diacetate (100 ng/mL). The percentage of viability was calculated in comparison with the control cultures. […] Each drug concentration was tested in triplicate in four separate determinations.
(Flow cytometry measures light scatter and fluorescence of single cells or particles in a stream.)

In a further assay the target is T1, human CuZn-SOD (Homo sapiens, UniProt P00441).
T1 construct: purchased Sigma Chemical Co. (St. Louis, MO, USA)
Put plainly: SOD inhibition assay, human CuZn-SOD. It counts as biochemical. To be noted: assayed 100 µM to 0.1 µM; non-linear regression. As for the experimental part:
The previous extraordinary results prompted us to evaluate the inhibitory effect of 3, 5–8 and 10 on the SOD activity. […]
Parasite cells were collected in the exponential growth phase by centrifugation (400g for 10 min). The pellet obtained after centrifugation was lysated by sonication, processed according to [38] and obtained the homogenate fraction which contained the parasite Fe-SOD. The protein content was quantified using the Sigma Bradford test, which uses BSA as a standard (no trace ability was certified for the BSA standard). Superoxide dismutase activities were determined using a method previously described, which measures the reduction in nitrobluetetrazolium (NBT) by superoxide ions. Human CuZn-SOD. Substrates used in these assays were obtained from Sigma Chemical Co. (St. Louis, MO, USA). Resulting data were analysed using the Newman−Keuls test.

Assay [3] has as its system L. braziliensis promastigotes. As to the kind of experiment: Ultrastructural alterations by TEM, L. braziliensis. The class given is cell-based, Leishmania braziliensis. Conditions: 72 h at IC25 concentration. As for the experimental part:
Parasites were cultured at a density of 5 × 10^5 cells/mL with medium containing the tested compounds at IC25 concentrations. After 72 h at 28 °C, the cultures were processed using a technique previously described and analysed by TEM (LIBRA 120 PLUS, Zeiss, Barcelona, Spain).

T1 sequence (P00441 whole entry): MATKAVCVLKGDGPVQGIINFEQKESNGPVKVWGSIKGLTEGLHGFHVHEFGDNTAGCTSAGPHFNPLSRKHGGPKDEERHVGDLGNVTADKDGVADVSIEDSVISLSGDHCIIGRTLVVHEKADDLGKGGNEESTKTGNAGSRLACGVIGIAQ

For the molecule `CN(C)c1ccnc(CN2CCC[C@H]2[C@@H]2CCCN2Cc2cc(N(C)C)ccn2)c1` [Compound 7], the IC50 is 1.1 ± 0.2 µM in assay [1], 172 ± 11.3 µM in assay [2] and over 500 µM at human CuZn-SOD. Further, the “ultrastructural alterations of L. braziliensis promastigotes (TEM)” value in assay [3] is “damaged, swollen, and full of vacuoles”.

As a reminder, the IC50 is the point on the concentration scale where inhibition reaches its midpoint.

Values taken from PMC6337631, “Effective Tetradentate Compound Complexes against Leishmania spp. that Act on Critical Enzymatic Pathways of These Parasites” (Molecules, 2018).
